Experimental data from patent US12202834B2, “Solid state forms of oclacitinib maleate” (VationPharma B.V., priority 2019, dated 2025).
Values joined by “and” are separate entries in the source; they are usually repeats but may differ in a detail not shown here. Equal entries are not always repeated. Structures can show the parent of a compound that is named as a salt.

Key:
Type in all cases: physicochemical
[1] = Thermodynamic solubility test (saturated solution, gravimetric); details: for Solubility, Average: average of three determinations; for Solubility compared to oclacitinib maleate form A: form A normalized to 100% (FIG. 16); for Solubility: single determination, saturated solution, 15 minutes stirring (600 rpm), 15 minute equilibrium, 0.2 μm filter
Method: The thermodynamic solubility of different forms of oclacitinib maleate was tested by generating a saturated solution for each form (i.e. oclacitinib maleate form A, amorphous oclacitinib maleate and monohydrate form of oclacitinib maleate). After 15 minutes of stirring (600 rpm) and further 15 minute of an equilibrium phase the solution was filtrated over an 0.2 μm syringe filter into a vial with a known weight.
Subsequently, the solvent was allowed to evaporate and the vial was then weighted again.

[2] = Stability tests of solid forms (storage, solid form analysed by XRPD); details: for Relative humidity at which the solid form is stable / can be stored: general statement in description
Method: The stability of the solid forms of oclacitinib obtained was tested at three different conditions, i.e. storage at 25° C. at 0% relative humidity, 40° C. at 75% rH and 25° C. at 100% rH. Alternatively or additionally, the stability of the solid forms of oclacitinib obtained was tested at 25° C. at 25% rH.

[3] = Hygroscopicity of solid state form; details: general statement in description
[4] = relatively high humidity, 25° C. at 100% rH
[5] = relatively high humidity, 40° C. at 75% rH
[6] = relatively low humidity, 25° C. at 0% rH

Row | Solubility, Average [1] [mg/mL] | Solid form found after storage ([2]; 25° C./0% rH, Week 1) | Solid form found after storage ([2]; 25° C./0% rH, Week 4) | Solid form found after storage ([2]; 25° C./100% rH, Week 1) | Solid form found after storage ([2]; 25° C./100% rH, Week 4) | Solid form found after storage ([2]; 40° C./75% rH, Week 1) | Solid form found after storage ([2]; 40° C./75% rH, Week 4) | Compound | Solubility [1] | further results
1 | 37.834 | – | – | – | – | – | – | CNS(=O)(=O)C[C@H]1CC[C@H](N(C)c2ncnc3[nH]ccc23)CC1 [Amorphous, amorphous oclacitinib maleate] | 37.095 mg/mL and 37.430 mg/mL and 38.976 mg/mL | Solubility compared to oclacitinib maleate form A ([1]; listed as amorphous form of oclacitinib maleate): more than twice as soluble
2 | 17.135 | – | – | – | – | – | – | CNS(=O)(=O)C[C@H]1CC[C@H](N(C)c2ncnc3[nH]ccc23)CC1 [Form A, N-methyl(4-(methyl(7H-pyrrolo[2,3-d]pyrimidin-4-yl)amino)cyclohexyl)methanesulfonamide maleic acid salt, reference compound] | 16.914 mg/mL and 16.690 mg/mL and 17.802 mg/mL | Relative humidity at which the solid form is stable / can be stored ([2]; listed as oclacitinib maleate form A): at most 30%
3 | 8.994 | Monohydrate | Monohydrate | Monohydrate | Monohydrate | Monohydrate | Monohydrate | CNS(=O)(=O)C[C@H]1CC[C@H](N(C)c2ncnc3[nH]ccc23)CC1 [monohydrate form of oclacitinib maleate] | 9.053 mg/mL and 9.047 mg/mL and 8.884 mg/mL | Stability of solid form ([2]; all three storage conditions (25° C./0% rH, 40° C./75% rH, 25° C./100% rH)): stable under all storage conditions; Stability of solid state with respect to relative humidity, in words ([2]; low (<50% rH) and high (>50% rH) relative humidity): stable by any relative humidity of the surrounding air; Solubility compared to oclacitinib maleate form A [1]: halved
4 | – | – | – | – | – | – | – | CNS(=O)(=O)C[C@H]1CC[C@H](N(C)c2ncnc3[nH]ccc23)CC1 [example 8, amorphous oclacitinib maleate] | – | Change of solid state on storage (XRPD) ([2]; 25° C. at 0% rH, after 2 weeks): remains stable; Change of solid state on storage (XRPD) ([2]; 25° C. at 25% rH, 3 weeks): does not show any change of solid state; Change of solid state on storage (XRPD) ([2]; 25° C. at 100% rH, after 2 weeks): conversion (intermediate graphs) of the amorphous phase to the monohydrate form of oclacitinib maleate; Change of solid state on storage (XRPD) ([2]; 40° C. at 75% rH, after 2 weeks): conversion (intermediate graphs) of the amorphous phase to the monohydrate form of oclacitinib maleate
5 | – | Form B | Form A | Form B | Form B | Form B | Form B | CNS(=O)(=O)C[C@H]1CC[C@H](N(C)c2ncnc3[nH]ccc23)CC1 [oclacitinib maleate form B] | – | Hygroscopicity [3]: non-hygroscopic; Solid form found after storage ([2]; 25° C./0% rH, Week 12): Form A; Solid form found after storage ([2]; 25° C./100% rH, Week 12): Form B; Solid form found after storage ([2]; 40° C./75% rH, Week 12): Form B; Relative humidity at which the solid form is stable / can be stored [2]: at least 30%; Stability of solid form [2, 4]: is stable; Stability of solid form [2, 5]: is stable; Stability of solid form [2, 6]: converses into oclacitinib maleate form A
6 | – | – | – | – | – | – | – | CNS(=O)(=O)C[C@H]1CC[C@H](N(C)c2ncnc3[nH]ccc23)CC1 [example 9, amorphous oclacitinib maleate] | – | Change of solid state on storage (XRPD) ([2]; 25° C. at 25% rH, 3 weeks): mixture (upper graph) comprising amorphous oclacitinib maleate and oclacitinib maleate form A
7 | – | TMU solvate | TMU solvate | Form B | Form B | Form B | Form B | CNS(=O)(=O)C[C@H]1CC[C@H](N(C)c2ncnc3[nH]ccc23)CC1 [tetramethyl urea solvate form of oclacitinib maleate] | – | Solid form found after storage ([2]; 25° C./0% rH, Week 12): TMU solvate; Solid form found after storage ([2]; 25° C./100% rH, Week 12): Form B; Solid form found after storage ([2]; 40° C./75% rH, Week 12): Form B; Stability of solid form [2, 4]: converses into oclacitinib maleate form B; Stability of solid form [2, 5]: converses into oclacitinib maleate form B; Stability of solid form [2, 6]: is stable
